Results taken from patent US20110275569A1, “PROTEASES TARGETING AGENTS” (CONSIGLIO NAZIONALE DELLE RICERCHE, priority 2008, published 2011).
Read-outs that look alike come from different tables or passages of the source.

How the values were obtained:
[1] = system: APEH in Caco-2 cells; assay: APEH activity in Caco-2 cells treated with peptides; format: cell-based, human; details: 48 h, dose-dependent decrease
Description: (§1) The proteasome down-regulation via APEH inhibition has been investigated. On the basis of the hypothesis that APEH can be used as a target to indirectly control/modulate proteasome functions in tumoral cells, an in vitro approach using the SsCEI 2, SsCEI 3 and SsCEI 4 peptides in the Caco-2 (human colon carcinoma) cell line has been carried out. To this end, differentiated Caco-2 cells were treated with peptides or with a specific proteasome inhibitor (MG132), for 48 h. […] The results were compared to those obtained in the cell-free assays, where a purified proteasome fraction was used.

[2] = biological target: T1, porcine acylamino-acid-releasing enzyme (AARE or APEH) (Sus scrofa, UniProt P19205); assay: Inhibition of porcine acylamino-acid-releasing enzyme; format: biochemical; details: for IC50: IC50 towards porcine acylamino-acid-releasing enzyme (AARE or APEH)
T1 sequence (P19205 1-732): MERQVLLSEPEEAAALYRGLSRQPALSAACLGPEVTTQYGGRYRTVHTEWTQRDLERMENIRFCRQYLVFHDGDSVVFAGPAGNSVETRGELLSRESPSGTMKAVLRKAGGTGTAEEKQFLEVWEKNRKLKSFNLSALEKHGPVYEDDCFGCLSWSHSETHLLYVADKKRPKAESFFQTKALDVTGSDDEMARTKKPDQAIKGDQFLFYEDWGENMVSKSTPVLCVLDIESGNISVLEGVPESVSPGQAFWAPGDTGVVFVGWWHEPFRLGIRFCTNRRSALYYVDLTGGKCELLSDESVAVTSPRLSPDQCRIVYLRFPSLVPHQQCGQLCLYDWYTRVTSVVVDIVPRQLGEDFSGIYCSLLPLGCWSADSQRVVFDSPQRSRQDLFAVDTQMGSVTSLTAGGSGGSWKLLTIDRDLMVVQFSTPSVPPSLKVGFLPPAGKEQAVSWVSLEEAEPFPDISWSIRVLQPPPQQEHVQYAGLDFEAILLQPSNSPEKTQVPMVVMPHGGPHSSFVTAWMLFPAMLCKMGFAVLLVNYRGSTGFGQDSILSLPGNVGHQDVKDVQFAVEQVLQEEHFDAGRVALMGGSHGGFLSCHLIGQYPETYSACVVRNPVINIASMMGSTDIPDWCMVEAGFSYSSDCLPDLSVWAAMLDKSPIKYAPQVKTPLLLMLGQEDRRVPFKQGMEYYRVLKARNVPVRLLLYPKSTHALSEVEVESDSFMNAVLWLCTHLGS
Description: The SsCEI 1 to 4 reported in the Example 1 were tested for ability to inhibit the activity of human acylamino-acid-releasing enzyme. Stock solutions (1 mM) of each lyophilized compounds were prepared in DMSO 100% and stored at 4° C. Inhibition effectiveness of each compound was determined by measuring enzyme activity both in the presence and absence of compounds. The activity of human acylamino-acid-releasing enzyme (AARE) was measured by using the chromogenic substrate N-acetyl-Ala-pNA (Bachem) (40 μM in DMSO 100%) as described above. […] Then, the substrate was added to the incubation mixture and the hydrolysis was performed for 20 min at 37° C. (FIG. 5). The data were fitted with the GraphPad Prism software. This analysis allowed the determination of IC50 values, which represent the concentrations at which the inhibition reached 50%. […] The IC50 values (See Table IV), obtained as average of 3-5 separate determinations, confirmed the utility of the compounds +of the present invention as effective AARE inhibitors.
The experiment described in example 7 has been performed using the porcine acylamino-acid-releasing enzyme. […] The efficiency of SsCEI 4 can be ascribed to the APEH preference for an alanine residue, with respect to the leucine, at the P1 site, assuming that the SsCEI-APEH association occurs in a substrate-like manner

[3] = system: proteasome; assay: Cell-free proteasome assay with purified proteasome fraction; format: biochemical
Description: as §1

[4] = system: caspase-3; assay: Caspase-3 activity after peptide treatment of Caco-2 cells; format: cell-based, human
Source text: To elucidate the molecular mechanisms associated with the inhibition of the proteasome, the effects of treatments with the SsCEI 2 and SsCEI 4 peptides on the activation of caspases have been evaluated.

[5] = system: Caco-2 cells; assay: Cytotoxicity by lactate dehydrogenase (LDH) activity in cell-culture media; format: cell-based, human; details: up to the highest concentration used (200 μM)
[6] = system: proteasome in Caco-2 (human colon carcinoma) cells; assay: Proteasome activity in Caco-2 cells treated with peptides for 48 h; format: cell-based; details: for proteasomal activity in Caco-2 cells (in words): differentiated Caco-2 cells
Description: as §1

Substance	residual APEH activity with respect to untreated cultures [1]	IC50 [2] [µM]	type of inhibition of porcine APEH ([2]; Lineweaver-Burk plot)	Ki ([2]; porcine APEH, Lineweaver-Burk plot, read-out: Ki APEH) [µM]	proteasome activity in cell-free systems [3]	caspase-3 activity [4]	cytotoxic effects, LDH activity levels in cell-culture media [5]	residual proteasome activity with respect to untreated cultures ([6]; Caco-2 cells, dose-dependent decrease)	proteasomal activity in Caco-2 cells (in words) [6]	Ki [2] [µM]
H-TILAEIKNINAD-NH2 [SsCEI 4, TILAEIKNINAD]	up to 45%	35 ± 0.8	competitive inhibitor	4 ± 0.8	did not affect proteasome activity	increased in a dose dependent manner	not associated with any cytotoxic effects	up to 45%	markedly reduced proteasomal activity	
H-YAIDTILAEIKNINAD-NH2 [SsCEI 3, YAIDTILAEIKNINAD]		20 ± 0.4							unable to affect proteasome	20 ± 0.4
H-TILLEIKNINAD-NH2 [SsCEI 2, TILLEIKNINAD]							not associated with any cytotoxic effects		markedly reduced proteasomal activity	
